Like-named read-outs stand apart in the source and are kept apart here.

Series [1] is described as follows: Degradation of sevoflurane (severe testing) with alumina, gas chromatographic composition. In kind it is physicochemical. Conditions: sevoflurane with moisture 6 ppm, alumina 50 mg, 50° C., 64 hours, after third water washing. The procedure: In Example 1, sevoflurane was treated under conditions more stringent than actual sevoflurane storage conditions so that “polyether” was forcibly generated. Specifically, according to the disclosure of Patent Literature 5, the water content of sevoflurane was adjusted to be lower than that of sevoflurane obtained as a final product (6 ppm). Further, sevoflurane was heated to 50° C. under the presence of oxidized aluminium (alumina) serving as Lewis acid (i.e., a substance that is considered to catalyze sevoflurane degradation in Patent Literature 5). As a result, a portion of sevoflurane was degraded into polyether, resulting in generation of “sevoflurane containing polyether” in the system. It was attempted to wash the obtained “sevoflurane containing polyether” with water.
Sevoflurane (used as a pharmaceutical product) (100 cm^3) was placed in a erlenmeyer flask and cooled to 10° C. in a refrigerator. Then, synthetic zeolite was introduced into the erlenmeyer flask so that the weight ratio of synthetic zeolite:sevoflurane became 1:4. Next, the erlenmeyer flask was allowed to stand still in a refrigerator at 10° C. for 2 hours and 30 minutes for drying of sevoflurane (reduction of water content).
Alumina (50 mg) was placed in a 50-cm^3 brown bottle with a narrow mouth. Sevoflurane having a moisture content of 6 ppm prepared in (1-1) (20 cm^3, 29.9 g) was added thereto.
Next, the cap of the brown bottle with a narrow mouth was closed and the bottle was heated in a thermostatic bath at 50° C. for 64 hours. After heating for 64 hours, the bottle was cooled in a refrigerator (10° C.) for 1 hour.
As the sevoflurane obtained as a result of severe testing in (1-2) contained hydrogen fluoride (HF), water washing (back extraction of HF into an aqueous phase) was conducted for the ease of handling. Specifically, the sevoflurane subjected to severe testing and water (15 cm^3) were introduced into a separatory funnel made of tetrafluoroethylene, stirred for 1 minute, and allowed to stand still for 1 minute, followed by liquid separation. Then, the aqueous phase was collected and pH was checked using a pH test paper.
Meanwhile, after the third water washing, the gas chromatographic composition of the organic phase was detected as follows: sevoflurane: about 87%; polyether 1: 8.4% (84000 ppm); and polyether 2: 4.0% (40000 ppm). In addition, 190 ppm of hexafluoroisopropyl alcohol (HFIP) was detected.

Series [2] in a line: Moisture content of liquid sevoflurane stored with dry nitrogen in autoclave (Karl Fischer). Type of series: physicochemical. The procedure:
A 1-dm^3 autoclave (SUS304) used as a sevoflurane storage container was filled with dry nitrogen. Liquid sevoflurane (i.e., a sevoflurane product containing 400 ppm of water) (30 g) was added thereto. The autoclave was hermetically closed and stored at room temperature for 1 month. Then, moisture content was measured using a Karl Fischer moisture meter. […] The liquid sevoflurane was stored for another month in the autoclave in the same manner. Then, the moisture content was measured again.

The conditions of series [3]: cited from earlier work.
The conditions of series [4]: as disclosed in Patent Literature 5; cited from earlier work.

In the case of `FCOC(C(F)(F)F)C(F)(F)F` [sevoflurane, Fluoromethyl-1,1,1,3,3,3-hexafluoroisopropyl ether], in series [1], the “gas chromatographic composition of the organic phase: polyether 1” value worked out at 8.4%, the “gas chromatographic composition of the organic phase: polyether 2” value is given as 4.0%, the “gas chromatographic composition of the organic phase: sevoflurane” value is given as “about 87%” and the “hexafluoroisopropyl alcohol (HFIP) detected in the organic phase” value is reported as 190 ppm. The molecule also had a moisture content in series [2] (product containing 400 ppm of water, 30 g in 1-dm^3 autoclave (SUS304) filled with dry nitrogen, room temperature, 1 month) of 360 ppm. Besides, the moisture content in series [2] (same storage, another month (2 months in total)) came out at 350 ppm. In addition, in series [3] (25° C.), the vapor pressure entry is “about 0.026 MPa”. For the same molecule, the vapor pressure result in series [3] (35° C.) is recorded as “about 0.041 MPa”. The vapor pressure entry in series [3] (45° C.) was “about 0.061 MPa”. Moreover, the “upper limit of the amount of water that can be mixed with sevoflurane” value in series [4] is reported as “about 1400 ppm”.

These data come from US20180117644A1, “METHOD FOR WASHING SEVOFLURANE STORAGE CONTAINER AND METHOD FOR STORING SEVOFLURANE” (CENTRAL GLASS COMPANY, LIMITED, priority 2016, published 2018).
